Data taken from patent publication US20260000676A1, “CHROMAN DERIVATIVES AS ESTROGEN RECEPTOR DEGRADERS” (THE REGENTS OF THE UNIVERSITY OF MICHIGAN, priority 2022, published 2026).

How the values were obtained:
CRBN/DDB1 = CRBN/DDB1 (Homo sapiens (Human), UniProt Q96SW2); test: HTRF binding assay to CRBN/DDB1; conditions: read-out: CRBN HTRF IC50
Procedure: The binding potency was determined using HTRF assay technology (Perkin Elmer). Compounds were serially diluted in DMSO and 0.2 μL volume was transferred to white 384-well plate.

ER = ER (Homo sapiens (Human), UniProt P03372); test: In-cell western (ICW) ER degradation assay in MCF-7 cells; type: cell-based; conditions: MCF7, 16 hrs; for DC50: ER degradation; for Dmax: MCF7, maximal ER degradation
Procedure: ERa degradative activity of compounds can be assessed in MCF-7 and T47D Cells. MCF-7 and T47D cell are seeded and are subsequently treated with the compounds at certain concentrations (e.g., 0.02 to 300 nM). DMSO can be used as vehicle control. Cells are fixed and are blocked with Intercept (PBS) Blocking Buffer (e.g., Li-COR, Odyssey Blocking Buffer), and are stained with ER (e.g., 1:500, Cell signaling) primary antibody for overnight at cold room. Secondary Antibody (e.g., IRDye 800CW Goat anti-Rabbit IgG) and CellTag 700 Stain are added in Intercept (PBS) Blocking Buffer. Finally, cell plate is placed in incubator to dry. Image and signal are captured on Odyssey® DLx Imaging System.
Day 3: After 16 hrs of compounds treatment, cells were fixed by 4% PFA and permeabilized with elution buffer (0.1% Triton X-100 in 1% PBS Solution). Subsequently, cells were blocked with Intercept (PBS) Blocking Buffer (Li-COR, Odyssey Blocking Buffer), and were stained with ER (1:500, Cell signaling) primary antibody for overnight at cold room.
Day 4: Remove the buffer, add IRDye 800CW Goat anti-Rabbit IgG Secondary Antibody (1:2000) and CellTag 700 Stain (1:500) in Intercept (PBS) Blocking Buffer. Finally, cell plate is placed in incubator to dry. Image and signal were captured on Odyssey® DLx Imaging System.

Sequence of ER (P03372 whole entry): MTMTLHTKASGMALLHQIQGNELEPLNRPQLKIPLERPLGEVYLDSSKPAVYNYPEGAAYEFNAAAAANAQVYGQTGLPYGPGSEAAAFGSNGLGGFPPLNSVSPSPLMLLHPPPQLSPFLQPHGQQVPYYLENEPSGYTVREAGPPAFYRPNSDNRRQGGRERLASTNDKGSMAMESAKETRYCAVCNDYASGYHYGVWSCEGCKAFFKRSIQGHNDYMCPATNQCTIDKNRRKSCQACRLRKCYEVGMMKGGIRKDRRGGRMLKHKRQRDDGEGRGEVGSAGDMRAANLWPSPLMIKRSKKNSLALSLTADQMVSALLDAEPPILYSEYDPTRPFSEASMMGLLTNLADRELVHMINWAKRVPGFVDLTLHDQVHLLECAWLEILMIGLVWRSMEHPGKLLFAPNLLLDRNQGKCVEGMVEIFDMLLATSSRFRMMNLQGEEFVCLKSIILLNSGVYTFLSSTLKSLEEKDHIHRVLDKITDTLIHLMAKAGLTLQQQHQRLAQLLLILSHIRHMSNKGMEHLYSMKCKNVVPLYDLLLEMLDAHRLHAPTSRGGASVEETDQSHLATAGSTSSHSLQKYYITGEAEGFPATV
Sequence of CRBN/DDB1 (Q96SW2 whole entry): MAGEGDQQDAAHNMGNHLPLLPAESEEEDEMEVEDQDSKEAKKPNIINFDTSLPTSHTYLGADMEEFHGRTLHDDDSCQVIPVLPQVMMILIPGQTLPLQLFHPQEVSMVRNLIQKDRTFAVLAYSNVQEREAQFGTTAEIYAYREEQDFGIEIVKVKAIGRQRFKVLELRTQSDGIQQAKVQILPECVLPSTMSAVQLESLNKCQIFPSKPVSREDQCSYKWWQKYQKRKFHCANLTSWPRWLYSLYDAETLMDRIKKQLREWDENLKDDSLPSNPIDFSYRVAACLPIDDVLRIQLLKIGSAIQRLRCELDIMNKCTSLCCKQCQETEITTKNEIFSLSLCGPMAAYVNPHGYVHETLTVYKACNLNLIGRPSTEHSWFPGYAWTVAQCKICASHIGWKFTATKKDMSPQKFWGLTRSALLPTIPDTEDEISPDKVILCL
Sequence of CRBN/DDB1 (Q16531 whole entry partner): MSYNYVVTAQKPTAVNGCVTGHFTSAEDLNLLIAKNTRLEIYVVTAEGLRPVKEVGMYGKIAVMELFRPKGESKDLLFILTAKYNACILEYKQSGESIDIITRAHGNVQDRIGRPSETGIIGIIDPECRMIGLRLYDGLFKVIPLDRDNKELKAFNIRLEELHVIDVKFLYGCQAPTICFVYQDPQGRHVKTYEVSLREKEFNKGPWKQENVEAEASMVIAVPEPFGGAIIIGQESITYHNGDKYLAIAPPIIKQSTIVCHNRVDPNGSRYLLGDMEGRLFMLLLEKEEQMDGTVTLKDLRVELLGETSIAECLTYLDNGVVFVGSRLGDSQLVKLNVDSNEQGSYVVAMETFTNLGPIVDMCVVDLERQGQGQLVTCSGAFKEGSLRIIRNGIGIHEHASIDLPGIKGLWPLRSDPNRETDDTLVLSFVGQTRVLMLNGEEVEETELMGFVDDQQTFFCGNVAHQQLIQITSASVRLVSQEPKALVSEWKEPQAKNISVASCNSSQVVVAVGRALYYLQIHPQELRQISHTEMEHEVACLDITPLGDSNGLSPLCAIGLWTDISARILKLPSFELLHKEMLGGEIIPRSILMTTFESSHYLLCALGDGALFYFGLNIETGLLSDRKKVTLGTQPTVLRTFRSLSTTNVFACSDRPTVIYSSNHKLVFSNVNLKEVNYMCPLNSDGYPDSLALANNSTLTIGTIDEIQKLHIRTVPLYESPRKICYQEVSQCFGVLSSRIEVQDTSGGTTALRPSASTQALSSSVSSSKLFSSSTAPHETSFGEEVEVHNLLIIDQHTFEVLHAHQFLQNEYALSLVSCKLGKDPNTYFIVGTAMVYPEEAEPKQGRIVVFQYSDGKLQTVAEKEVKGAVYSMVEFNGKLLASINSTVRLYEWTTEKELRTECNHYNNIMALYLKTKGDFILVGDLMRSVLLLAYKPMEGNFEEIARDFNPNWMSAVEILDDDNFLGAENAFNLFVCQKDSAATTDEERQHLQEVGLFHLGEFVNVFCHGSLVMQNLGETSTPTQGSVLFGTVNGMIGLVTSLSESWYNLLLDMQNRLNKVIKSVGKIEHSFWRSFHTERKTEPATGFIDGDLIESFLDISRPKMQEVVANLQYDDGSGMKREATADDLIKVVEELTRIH

Row | Structure (SMILES) | IC50 (CRBN/DDB1) [nM] | DC50 (ER) [nM] | Dmax (ER) [%]
1 | O=C1CCC(N2Cc3cc4c(cc3C2=O)OC[C@@H]2CN(CC3CCN(c5ccc([C@H]6c7ccc(O)cc7OC[C@H]6c6ccccc6)cc5)CC3)CCN42)C(=O)N1 (stereo partly drawn) [Compound A11, 3-((S)-3-((1-(4-((3R,4S)-7-hydroxy-3-phenylchroman-4-yl)phenyl)piperidin-4-yl)methyl)-8-oxo-1,2,3,4,4a,5,8,10-octahydro-9H-pyrazino[1′,2′:4,5][1,4]oxazino[2,3-f]isoindol-9-yl)piperidine-2,6-dione] | > 5000 | – | –
2 | O=C1CCC(N2Cc3cc4c(cc3C2=O)CN(C(=O)CN2CCC3(CC2)CN(c2ccc([C@H]5c6ccc(O)cc6OC[C@H]5c5ccccc5)cc2)C3)C4)C(=O)N1 (stereo partly drawn) [Compound A48, 3-(6-(2-(2-(4-((3R,4S)-7-hydroxy-3-phenylchroman-4-yl)phenyl)-2,7-diazaspiro[3.5]nonan-7-yl)acetyl)-1-oxo-3,5,6,7-tetrahydropyrrolo[3,4-f]isoindol-2(1H)-yl)piperidine-2,6-dione] | 50 to 500 | > 100 | < 25
3 | COc1cccc([C@@H]2COc3cc(O)ccc3[C@@H]2c2ccc(N3CCC(CN4CCN5c6ccc7c(c6OC[C@H]5C4)CN(C4CCC(=O)NC4=O)C7=O)CC3)cc2)c1 (single isomer, unassigned) [Compound A34] | 50 to 500 | 1 to 10 | 25 to 50
4 | COc1cccc([C@@H]2COc3cc(O)ccc3[C@@H]2c2ccc(N3CCC(CN4CCN5c6ccc7c(c6OC[C@@H]5C4)CN(C4CCC(=O)NC4=O)C7=O)CC3)cc2)c1 (single isomer, unassigned) [Compound A24] | < 50 | – | –
5 | Cc1nn(C2CCC(=O)NC2=O)c2ccc(N3CCN(CC4CCN(c5ccc([C@@H]6c7ccc(O)cc7OC[C@@H]6c6ccccc6)cc5F)CC4)CC3)cc12 (single isomer, unassigned) [Compound A14] | 500 to 5000 | 1 to 10 | 25 to 50
6 | O=C1CCC(N2Cc3c(ccc4c3OC[C@H]3CN(CC5CCN(c6ncc([C@@H]7c8ccc(O)cc8OC[C@@H]7c7ccccc7)cn6)CC5)CCN43)C2=O)C(=O)N1 (single isomer, unassigned) [Compound A36] | 50 to 500 | 10 to 100 | 25 to 50
7 | O=C1CCC(N2Cc3c(ccc4c3OC[C@@H]3CN(CC5CC6(CCN(c7ccc([C@@H]8c9ccc(O)cc9OC[C@@H]8c8ccccc8)cc7)CC6)C5)CCN43)C2=O)C(=O)N1 (stereo partly drawn) [Compound A22, 3-((S)-7-((7-(4-((3S,4R)-7-hydroxy-3-phenylchroman-4-yl)phenyl)-7-azaspiro[3.5]nonan-2-yl)methyl)-1-oxo-1,3,5,5a,6,7,8,9-octahydro-2H-pyrazino[1′,2′:4,5][1,4]oxazino[2,3-e]isoindol-2-yl)piperidine-2,6-dione] | < 50 | – | –
8 | O=C1CCC(N2Cc3cc4c(cc3C2=O)OC[C@@H]2CN(CC3CCN(c5ncc([C@H]6c7ccc(O)cc7OC[C@H]6c6ccccc6)cn5)CC3)CCN42)C(=O)N1 (stereo partly drawn) [Compound A18, 3-((S)-3-((1-(5-((3R,4S)-7-hydroxy-3-phenylchroman-4-yl)pyrimidin-2-yl)piperidin-4-yl)methyl)-8-oxo-1,2,3,4,4a,5,8,10-octahydro-9H-pyrazino[1′,2′:4,5][1,4]oxazino[2,3-f]isoindol-9-yl)piperidine-2,6-dione] | 500 to 5000 | – | –
9 | COc1cccc([C@H]2COc3cc(O)ccc3[C@H]2c2ccc(N3CCC(CN4CCN5c6ccc7c(c6OC[C@@H]5C4)CN(C4CCC(=O)NC4=O)C7=O)CC3)cc2)c1 (single isomer, unassigned) [Compound A23] | < 50 | – | –
10 | O=C1CCC(N2Cc3cc4c(cc3C2=O)OC[C@@H]2CN(CC3CC5(CCN(c6ccc([C@@H]7c8ccc(O)cc8OC[C@@H]7c7ccccc7)cc6)CC5)C3)CCN42)C(=O)N1 (stereo partly drawn) [Compound A28, 3-((S)-3-((7-(4-((3S,4R)-7-hydroxy-3-phenylchroman-4-yl)phenyl)-7-azaspiro[3.5]nonan-2-yl)methyl)-8-oxo-1,2,3,4,4a,5,8,10-octahydro-9H-pyrazino[1′,2′:4,5][1,4]oxazino[2,3-f]isoindol-9-yl)piperidine-2,6-dione] | > 5000 | – | –
11 | Cc1nn(C2CCC(=O)NC2=O)c2ccc(N3CCN(CC4CC5(CCN(c6ccc([C@@H]7c8ccc(O)cc8OC[C@@H]7c7ccccc7)cc6)CC5)C4)CC3)cc12 (single isomer, unassigned) [Compound A25] | 50 to 500 | – | –
12 | COc1ccc([C@@H]2COc3cc(O)ccc3[C@@H]2c2ccc(N3CCC(CN4CCN5c6ccc7c(c6OC[C@H]5C4)CN(C4CCC(=O)NC4=O)C7=O)CC3)cc2)cc1 (single isomer, unassigned) [Compound A15] | 50 to 500 | – | –
13 | O=C1CCC(N2Cc3c(ccc4c3OC[C@@H]3CN(CC5CCN(c6ncc([C@H]7c8ccc(O)cc8OC[C@H]7c7ccccc7)cn6)CC5)CCN43)C2=O)C(=O)N1 (single isomer, unassigned) [Compound A19] | 50 to 500 | – | –
14 | O=C1CCC(N2Cc3cc4c(cc3C2=O)OC[C@@H]2CN(CC3CCN(c5ncc([C@@H]6c7ccc(O)cc7OC[C@@H]6c6ccccc6)cn5)CC3)CCN42)C(=O)N1 (stereo partly drawn) [Compound A10, 3-((S)-3-((1-(5-((3S,4R)-7-hydroxy-3-phenylchroman-4-yl)pyrimidin-2-yl)piperidin-4-yl)methyl)-8-oxo-1,2,3,4,4a,5,8,10-octahydro-9H-pyrazino[1′,2′:4,5][1,4]oxazino[2,3-f]isoindol-9-yl)piperidine-2,6-dione] | 500 to 5000 | – | –
15 | O=C1CCC(Nc2ccc(N3CCN(CC4CCN(c5ccc([C@@H]6c7ccc(O)cc7OC[C@@H]6c6ccccc6)cc5)CC4)CC3)c(F)c2)C(=O)N1 (stereo partly drawn) [Compound A30, 3-((3-fluoro-4-(4-((1-(4-((3S,4R)-7-hydroxy-3-phenylchroman-4-yl)phenyl)piperidin-4-yl)methyl)piperazin-1-yl)phenyl)amino)piperidine-2,6-dione] | 500 to 5000 | – | –
16 | O=C1CCC(N2C(=O)c3cc4c(cc3C2=O)CN(CC(=O)N2CCC3(CC2)CCN(c2ncc([C@H]5c6ccc(O)cc6OC[C@H]5c5ccccc5)cn2)CC3)C4)C(=O)N1 (stereo partly drawn) [Compound A4, 2-(2,6-dioxopiperidin-3-yl)-6-(2-(9-(5-((3R,4S)-7-hydroxy-3-phenylchroman-4-yl)pyrimidin-2-yl)-3,9-diazaspiro[5.5]undecan-3-yl)-2-oxoethyl)-6,7-dihydropyrrolo[3,4-f]isoindole-1,3(2H,5H)-dione] | 500 to 5000 | – | –
17 | O=C1CCC(N2C(=O)c3cc4c(cc3C2=O)CN(C(=O)CN2CC3(CCN(c5ccc([C@@H]6c7ccc(O)cc7OC[C@@H]6c6ccccc6)cc5)CC3)C2)C4)C(=O)N1 (stereo partly drawn) [Compound A32, 2-(2,6-dioxopiperidin-3-yl)-6-(2-(7-(4-((3S,4R)-7-hydroxy-3-phenylchroman-4-yl)phenyl)-2,7-diazaspiro[3.5]nonan-2-yl)acetyl)-6,7-dihydropyrrolo[3,4-f]isoindole-1,3(2H,5H)-dione] | 500 to 5000 | – | –
18 | O=C1CCC(N2Cc3c(ccc4c3OC[C@@H]3CN(CC5CCN(c6ncc([C@@H]7c8ccc(O)cc8OC[C@@H]7c7ccccc7)cn6)CC5)CCN43)C2=O)C(=O)N1 (single isomer, unassigned) [Compound A20] | < 50 | – | –
19 | COc1ccc([C@H]2COc3cc(O)ccc3[C@H]2c2ccc(N3CCC(CN4CCN5c6ccc7c(c6OC[C@@H]5C4)CN(C4CCC(=O)NC4=O)C7=O)CC3)cc2)cc1 (single isomer, unassigned) [Compound A13] | 50 to 500 | – | –
20 | O=C1CCC(N2C(=O)c3cc4c(cc3C2=O)CN(CC(=O)N2CCC3(CC2)CCN(c2ncc([C@@H]5c6ccc(O)cc6OC[C@@H]5c5ccccc5)cn2)CC3)C4)C(=O)N1 (stereo partly drawn) [Compound A5, 2-(2,6-dioxopiperidin-3-yl)-6-(2-(9-(5-((3S,4R)-7-hydroxy-3-phenylchroman-4-yl)pyrimidin-2-yl)-3,9-diazaspiro[5.5]undecan-3-yl)-2-oxoethyl)-6,7-dihydropyrrolo[3,4-f]isoindole-1,3(2H,5H)-dione] | 500 to 5000 | – | –
21 | O=C1CCC(N2Cc3c(ccc4c3OC[C@@H]3CN(CC5CC6(CCN(c7ccc([C@H]8c9ccc(O)cc9OC[C@H]8c8ccccc8)cc7)CC6)C5)CCN43)C2=O)C(=O)N1 (single isomer, unassigned) [Compound A21, 3-((S)-7-((7-(4-((3R,4S)-7-hydroxy-3-phenylchroman-4-yl)phenyl)-7-azaspiro[3.5]nonan-2-yl)methyl)-1-oxo-1,3,5,5a,6,7,8,9-octahydro-2H-pyrazino[1′,2′:4,5][1,4]oxazino[2,3-e]isoindol-2-yl)piperidine-2,6-dione] | < 50 | – | –
22 | O=C1CCC(Nc2ccc(N3CCN(CC4CCN(c5ccc([C@@H]6c7ccc(O)cc7OC[C@@H]6c6ccccc6)cc5F)CC4)CC3)c(F)c2)C(=O)N1 (stereo partly drawn) [Compound A29, 3-((3-fluoro-4-(4-((1-(2-fluoro-4-((3S,4R)-7-hydroxy-3-phenylchroman-4-yl)phenyl)piperidin-4-yl)methyl)piperazin-1-yl)phenyl)amino)piperidine-2,6-dione] | 500 to 5000 | – | –
23 | COc1ccc([C@@H]2COc3cc(O)ccc3[C@@H]2c2ccc(N3CCC(CN4CCN5c6ccc7c(c6OC[C@@H]5C4)CN(C4CCC(=O)NC4=O)C7=O)CC3)cc2)cc1 (single isomer, unassigned) [Compound A12] | 50 to 500 | – | –
